Assay results as given in ChEMBL document CHEMBL4011596, “Design, synthesis, and biological evaluation of a highly water-soluble psoralen-based photosensitizer” (Bioorg Med Chem, 2017).
Active and inactive are the calls of the source. No cut-off for these calls is given here.

How the values were obtained:
BALB/3T3 [1] = assay: Photocytotoxicity against mouse BALB/3T3 cells at >42 uM preincubated for 48 hrs followed by 3.3 J/cm2 UV light irradiation for 500 sec measured after 18 hrs by Alamar blue assay; assay type: functional, cell-based
[2] = Induction of singlet oxygen production in DMSO assessed as decrease in DPBF level by measuring quantum yield after irradiation with halogen light by spectroscopic analysis relative to control; design: scale not given: the % may be the effect or the level left
BALB/3T3 [3] = assay: Photocytotoxicity against mouse BALB/3T3 cells assessed as cell death at 2.9 uM preincubated for 48 hrs followed by 3.3 J/cm2 UV light irradiation for 500 sec measured after 18 hrs by Alamar blue assay relative to control; assay type: functional

Row | SMILES | Activity (BALB/3T3 [1]) | Activity [2] [%] | Activity (BALB/3T3 [3]) [%]
1 | O=c1ccc2cc3ccoc3cc2o1 | Active | 17 | –
2 | COc1c2occc2c(Cn2cc(CO[C@@H]3O[C@H](CO)[C@H](O)[C@H](O)[C@H]3O)nn2)c2ccc(=O)oc12 | Active | 24 | –
3 | COc1c2occc2c(Cn2cc(CO[C@@H]3O[C@H](CO)[C@@H](O)[C@H](O)[C@H]3O)nn2)c2ccc(=O)oc12 | Active | 24 | 15
